From ChEMBL document CHEMBL1147564, “Synthesis and anti-inflammatory activity of natural and semisynthetic geranyloxycoumarins” (2004)

Columns and labels:
Assay type in all cases: functional
Mus musculus [1] = species on record: Mus musculus; assay: Inhibitory activity against mouse uM/cm**2 (control=7.0)
Mus musculus [2] = species on record: Mus musculus; assay: (§1) Percent uM/cm**2; parameters: concentration or dose not given beside the values
Mus musculus [3] = species on record: Mus musculus; assay: as §1

SMILES | ear oedema weight (Mus musculus [1]) | Reduction (Mus musculus [2]) | Reduction (Mus musculus [3])
CC(=O)Oc1c(OC/C=C(\C)CCC=C(C)C)ccc2ccc(=O)oc12 | 3.4 mg | 51% | –
CC(C)=CCC/C(C)=C/COc1ccc2ccc(=O)oc2c1C | 4.8 mg | 31% | –
CC(C)=CCC/C(C)=C/COc1ccc2ccc(=O)oc2c1O | 4.3 mg | 39% | –
CC(C)=CCC/C(C)=C/COc1ccc2ccc(=O)oc2c1Cl | 4.5 mg | 36% | –
CCCCCOc1c(OC/C=C(\C)CCC=C(C)C)ccc2ccc(=O)oc12 | 6.4 mg | 9% | –
CC(C)=CCC/C(C)=C/COc1ccc2ccc(=O)oc2c1OC/C=C(\C)CCC=C(C)C | 5.1 mg | 27% | –
CC(C)=CCC/C(C)=C/COc1ccc2ccc(=O)oc2c1F | 5.1 mg | 27% | –
CC(C)=CCC/C(C)=C/COc1ccc2ccc(=O)oc2c1Br | 4 mg | 43% | –
CC(C)=CCC/C(C)=C/COc1ccc2ccc(=O)oc2c1I | 5 mg | 29% | –
CC(C)=CCC/C(C)=C/COc1ccc2ccc(=O)oc2c1 [AURAPTENE] | 3.4 mg | 51% | –
COc1c(OC/C=C(\C)CCC=C(C)C)ccc2ccc(=O)oc12 [COLLININ] | 3.7 mg | 47% | –
COc1ccc2c(c1)c(CC(=O)O)c(C)n2C(=O)c1ccc(Cl)cc1 [INDOMETHACIN] | 3.7 mg | – | 47%
